Data published in patent publication US8242168B2, “Use of phthalide derivatives for the treatment of type 2 diabetes mellitus” (DSM IP Assets B.V., priority 2003, dated 2012).
“And” between values parts separate entries of the source, which are not always exact repeats. Equal values may be shown once.

Assays:
C3H10T1/2 cells [1] = test: Differentiation of adipocytes (oil Red O staining); type: cell-based; conditions: for Differentiation of the cells into adipocytes versus insulin alone (result in words): co-treatment with insulin, 10 days; for Mean OD ± SEM (oil Red O, 540 nm): 10-day treatment
Procedure: After the 10-day treatment, the cells were stained with oil Red O as follows: cells were washed 2× in PBS and fixed in 10% formalin at room temperature for 1 h. After removal of formalin, 200 μl of oil Red O staining solution (3:2 mixture of 0.5% w/v oil Red O stock solution and water) was applied to each well. The cells were incubated for 20 min at room temperature, washed twice in 2×PBS and incubated for 10 min with 300 μl of isopropanol/well for oil Red O extraction. Quantification of oil Red O was determined by measuring absorbance at 540 nm (mean OD).
The measurement of adipocyte differentiation using the oil Red O assay was performed as described in Example 4.

C3H10T1/2 cells [2] = test: Glucose uptake of adipocytes (radioactive 2-deoxyglucose); type: cell-based; conditions: for Basal glucose uptake / Basal glucose uptake (result in words): 48-h treatment; for Basal glucose uptake: absence of insulin, ± SEM; for Basal glucose uptake (result in words): different concentrations
Procedure: C3H10T1/2 cells (ATCC CCL-226) were grown for 5 days to confluence in DMEM supplemented with 10% FBS medium and induced with a mixture of insulin, dexamethasone and 3-isobutyl-1-methylxanthine to differentiate into adipocytes. Nine days after the beginning of induction, cells were treated for 48-h with ligustilide at different concentrations as shown in Table 2. Glucose uptake was determined using radioactive 2-deoxyglucose (10 μM 2-DG in HBS+0.5 μCi/ml of 3[H]-2-DG), measuring glucose uptake in the absence of insulin. Basal glucose uptake was increased by 48-h treatment with ligustilide in a dose-dependent manner (Table 2). This increase in glucose uptake was specific, since the increase was not observed in the presence of phloretin, a known inhibitor of specific glucose uptake.
Growing, induction and treatment of C3H10T1/2 cells were exactly as described in Example 1, with die exception that 3-butylphthalide at different concentrations was used instead of ligustilide.
Growing, induction and treatment of C3H10T1/2 cells were exactly as described in Example 1, with the exception that 3-butylidenphthalide at different concentrations was used instead of ligustilide.

C57BLKS/J db/db mice = test: Blood glucose and oral glucose tolerance test in db/db mice; type: in vivo
Procedure: The efficacy of ligustilide on glucose tolerance was tested in a 7-day study in C57BLKS/J db/db mice (n=10/group), a model of late type 2 diabetes mellitus with severe hyperglycemia which is widely used to determine the efficacy of PPARγ ligands.
Male db/db mice were obtained from Jackson Laboratory (Bar Harbor, Me., USA). Adult mice aged 12 weeks were used in the experiment. Mice were housed individually in plastic cages with bedding and allowed free access to standard rodent food and tap water. The animal rooms were controlled for temperature (24° C.), humidity (55%), and light (12-h light-dark cycle). The animals were randomized in two groups and ligustilide was administered orally to one of the groups for 7 days at a dose of 200 mg/kg BW/day. After 7 days of treatment the concentration of glucose was determined in blood from fed animals, i.e., animals which were not restricted from food. After a period of 5 days of treatment an oral glucose tolerance test (OGTT) was performed. For the OGTT mice were fasted overnight and then a 1-g glucose/kg BW solution was orally administered. […] Blood glucose was measured by a glucose analyzer (Glucotrend Premium, Roche Diagnostics, Rotkreuz, Switzerland).

[3] = insulin 1 × 10^−7 M + compound 1 × 10^−5 M
[4] = insulin 1 × 10^−7 M + compound 1 × 10^−4 M

Compound | Differentiation of the cells into adipocytes versus insulin alone (result in words) (C3H10T1/2 cells [1]) | Mean OD ± SEM (oil Red O, 540 nm) (C3H10T1/2 cells [1]; [3]) | Basal glucose uptake (C3H10T1/2 cells [2]; 1 × 10^−4 M) | Basal glucose uptake (C3H10T1/2 cells [2]; 1 × 10^−5 M) | Basal glucose uptake (C3H10T1/2 cells [2]; 1 × 10^−6 M) | Basal glucose uptake (result in words) (C3H10T1/2 cells [2]) | Mean OD ± SEM (oil Red O, 540 nm) (C3H10T1/2 cells [1]; [4]) | Basal glucose uptake (C3H10T1/2 cells [2]; 5 × 10^−5 M) | also measured
CCCC[C@@H]1OC(=O)c2ccccc21 (stereo in doubt) [3-Butylphthalide] | higher differentiation | 0.21 ± 0.01 | 136.7 ± 8.5 % of control | 97.5 ± 8.5 % of control | 99.3 ± 8.5 % of control | increase |  |  | 
CCC/C=C1\OC(=O)c2ccccc21 [3-Butylidenephthalide] | higher differentiation | 0.15 ± 0.01 | 137.3 ± 8.5 % of control | 123.8 ± 8.5 % of control | 107.0 ± 8.5 % of control | increase | 0.28 ± 0.01 |  | Mean OD ± SEM (oil Red O, 540 nm) (C3H10T1/2 cells [1]; insulin 1 × 10^−7 M + compound 5 × 10^−5 M): 0.22 ± 0.01
CC1(COc2ccc(CC3SC(=O)NC3=O)cc2)CCCCC1 (centres unmarked) [Ciglitazone, reference compound] |  |  |  |  |  |  |  | 381.5 ± 24.4 % of control | 
CCC/C=C1\OC(=O)C2=C1CCC=C2 [Ligustilide] | higher differentiation |  | 175.0 ± 24.4 % of control |  |  | increased |  | 131.8 ± 24.4 % of control | Mean OD ± SEM (oil Red O, 540 nm) (C3H10T1/2 cells [1]; insulin 2 × 10^−7 M + compound 5 × 10^−6 M): 1.71 ± 0.34; Glucose AUC of an OGTT (result in words) (C57BLKS/J db/db mice; 1 g glucose/kg body weight, day 5): significantly reduced; Blood glucose levels during the OGTT versus control (result in words) (C57BLKS/J db/db mice; OGTT on day 5, 15-180 min): lower at all time points; Glucose levels of fasted animals versus untreated control (result in words) (C57BLKS/J db/db mice; after 5 days of treatment, overnight fasting): significantly decreased; Glucose levels of fed animals (result in words) (C57BLKS/J db/db mice; after 7 days of treatment, 200 mg/kg BW/day): significantly lowered; Blood Glucose Fasted (C57BLKS/J db/db mice; db/db mice, 200 mg/kg BW/day orally, after 5 days, overnight fasting): 196 mg/dL; Blood Glucose Fed (C57BLKS/J db/db mice; db/db mice, 200 mg/kg BW/day orally, after 7 days, fed animals): 388 mg/dL; Glucose AUC (OGTT) (C57BLKS/J db/db mice; db/db mice, 200 mg/kg BW/day orally, day 5, OGTT 1 g glucose/kg BW, 0-180 min): 51039; Basal glucose uptake (C3H10T1/2 cells [2]; 2 × 10^−4 M): 294.4 ± 24.4 % of control; Basal glucose uptake (C3H10T1/2 cells [2]; 5 × 10^−6 M): 105.9 ± 24.4 % of control; Increase in glucose uptake in the presence of phloretin (C3H10T1/2 cells [2]; phloretin, inhibitor of specific glucose uptake): not observed
CCCC[C@@H]1OC(=O)C2=CCCCC21 (some centres unmarked) [Sedanolide] | higher differentiation | 0.15 ± 0.01 |  |  |  |  | 0.18 ± 0.01 |  | 
Insulin [reference compound] |  |  |  |  |  |  |  |  | Mean OD ± SEM (oil Red O, 540 nm) (C3H10T1/2 cells [1]; insulin 1 × 10^−7 M alone): 0.14 ± 0.01 and 0.16 ± 0.01; Mean OD ± SEM (oil Red O, 540 nm) (C3H10T1/2 cells [1]; insulin 2 × 10^−7 M alone (negative control)): 0.687 ± 0.34
